{
  "source": "paper PMC7226860",
  "about": "(ACS Omega, 2020)",
  "assay_in_all_cases": "Agar well diffusion, inhibition zone",
  "key": {"[1]": {"system": "K. pneumonia (ATCC: 4415)", "format": "cell-based, Klebsiella pneumonia", "conditions": "for diameter of the inhibition zone: K. pneumonia (ATCC: 4415), Gram (−ve), 15 mg/mL, mean ± SD; for zone of inhibition at 15000 µg/mL: Klebsiella pneumoniae, read-out: diameter of the inhibition zone, K. pneumonia (ATCC: 4415), Gram (−ve), 15 mg/mL, mean ± SD"}, "E. coli (ATCC: 3008)": {"system": "E. coli (ATCC: 3008)", "format": "cell-based, Escherichia coli", "conditions": "for zone of inhibition at 15000 µg/mL: Escherichia coli, read-out: diameter of the inhibition zone; for diameter of the inhibition zone: E. coli (ATCC: 3008), Gram (−ve), agar well diffusion, 15 mg/mL, mean ± SD"}, "S. aureus (ATCC: 6538)": {"system": "S. aureus (ATCC: 6538)", "format": "cell-based, Staphylococcus aureus", "conditions": "for diameter of the inhibition zone: S. aureus (ATCC: 6538), Gram (+ve), agar well diffusion, 15 mg/mL, mean ± SD; for zone of inhibition at 15000 µg/mL: Staphylococcus aureus, read-out: diameter of the inhibition zone"}, "[2]": {"system": "C. albicans (ATCC: 10231)", "format": "cell-based, Candida albicans", "conditions": "for diameter of the inhibition zone: C. albicans (ATCC: 10231), fungi, 15 mg/mL, mean ± SD"}, "[3]": {"system": "P. aeruginosa (ATCC: 27853)", "format": "cell-based, Pseudomonas aeruginosa", "conditions": "P. aeruginosa (ATCC: 27853), Gram (−ve); agar well diffusion, 15 mg/mL; mean ± SD"}, "S. mutans (ATCC: 25175)": {"system": "S. mutans (ATCC: 25175)", "format": "cell-based, Streptococcus mutans", "conditions": "for zone of inhibition at 15000 µg/mL: Streptococcus mutans, read-out: diameter of the inhibition zone; for diameter of the inhibition zone: S. mutans (ATCC: 25175), Gram (+ve), agar well diffusion, 15 mg/mL, mean ± SD"}},
  "data": [
    {"molecule": "CSc1c(C(=O)Nc2ccc(C)cc2)c(N)n(NS(=O)(=O)c2ccccc2)c(=O)c1-c1nc2ccccc2s1", "note": "[compound 9c, 2-Amino-5-(benzo[d]thiazol-2-yl)-4-(methylthio)-6-oxo-1-(phenylsulfonamido)-N-(p-tolyl)-1,6-dihydropyridine-3-carboxamide]", "values": [
      {"measurement": "diameter of the inhibition zone", "setting": "[1]", "result": "29.2 ± 0.3", "unit": "mm"},
      {"measurement": "zone of inhibition at 15000 µg/mL", "setting": "[1]", "result": 29, "unit": "mm"},
      {"measurement": "zone of inhibition at 15000 µg/mL", "setting": "E. coli (ATCC: 3008)", "result": "14.8 ± 0.2", "unit": "mm"},
      {"measurement": "diameter of the inhibition zone", "setting": "S. aureus (ATCC: 6538)", "result": "−"},
      {"measurement": "diameter of the inhibition zone", "setting": "[2]", "result": "−"},
      {"measurement": "diameter of the inhibition zone", "setting": "[3]", "result": "−"},
      {"measurement": "zone of inhibition at 15000 µg/mL", "setting": "S. mutans (ATCC: 25175)", "result": "20.2 ± 1", "unit": "mm"}
    ]},
    {"molecule": "COc1ccc(NC(=O)c2c(SC)c(-c3nc4ccccc4s3)c(=O)n(NS(=O)(=O)c3ccccc3)c2N)cc1", "note": "[compound 9e, 2-Amino-5-(benzo[d]thiazol-2-yl)-N-(4-methoxyphenyl)-4-(methylthio)-6-oxo-1-(phenylsulfonamido)-1,6-dihydropyridine-3-carboxamide]", "values": [
      {"measurement": "diameter of the inhibition zone", "setting": "[1]", "result": "no activity and −"},
      {"measurement": "diameter of the inhibition zone", "setting": "E. coli (ATCC: 3008)", "result": "−"},
      {"measurement": "zone of inhibition at 15000 µg/mL", "setting": "S. aureus (ATCC: 6538)", "result": "19.6 ± 1", "unit": "mm"},
      {"measurement": "diameter of the inhibition zone", "setting": "[2]", "result": "−"},
      {"measurement": "diameter of the inhibition zone", "setting": "[3]", "result": "−"},
      {"measurement": "diameter of the inhibition zone", "setting": "S. mutans (ATCC: 25175)", "result": "−"}
    ]},
    {"molecule": "O=C(Cc1nc2ccccc2s1)NNS(=O)(=O)c1ccccc1", "note": "[compound 3a, N′-(2-(Benzo[d]thiazol-2-yl)acetyl)benzenesulfonohydrazide]", "values": [
      {"measurement": "zone of inhibition at 15000 µg/mL", "setting": "[1]", "result": "20 ± 3", "unit": "mm"},
      {"measurement": "diameter of the inhibition zone", "setting": "E. coli (ATCC: 3008)", "result": "− ^a"},
      {"measurement": "diameter of the inhibition zone", "setting": "S. aureus (ATCC: 6538)", "result": "−"},
      {"measurement": "diameter of the inhibition zone", "setting": "[2]", "result": "−"},
      {"measurement": "diameter of the inhibition zone", "setting": "[3]", "result": "−"},
      {"measurement": "diameter of the inhibition zone", "setting": "S. mutans (ATCC: 25175)", "result": "−"}
    ]},
    {"molecule": "CSc1c(C(=O)Nc2ccc(C)cc2)c(N)n(NS(=O)(=O)c2ccc(C)cc2)c(=O)c1-c1nc2ccccc2s1", "note": "[compound 9d, 2-Amino-5-(benzo[d]thiazol-2-yl)-1-(4-methylphenylsulfonamido)-4-(methylthio)-6-oxo-N-(p-tolyl)-1,6-dihydropyridine-3-carboxamide]", "values": [
      {"measurement": "diameter of the inhibition zone", "setting": "[1]", "result": "−"},
      {"measurement": "diameter of the inhibition zone", "setting": "E. coli (ATCC: 3008)", "result": "−"},
      {"measurement": "zone of inhibition at 15000 µg/mL", "setting": "S. aureus (ATCC: 6538)", "result": "26.8 ± 1.5", "unit": "mm"},
      {"measurement": "diameter of the inhibition zone", "setting": "[2]", "result": "28.0 ± 0.7", "unit": "mm"},
      {"measurement": "zone of inhibition at 15000 µg/mL", "setting": "[2]; Candida albicans, read-out: diameter of the inhibition zone, C. albicans (ATCC: 10231), fungi, 15 mg/mL, mean ± SD", "result": "21 to 28", "unit": "mm"},
      {"measurement": "diameter of the inhibition zone", "setting": "[3]", "result": "−"},
      {"measurement": "zone of inhibition at 15000 µg/mL", "setting": "S. mutans (ATCC: 25175)", "result": "8.8 ± 1", "unit": "mm"}
    ]},
    {"molecule": "CSc1c(C#N)c(O)n(NS(=O)(=O)c2ccccc2)c(=O)c1-c1nc2ccccc2s1", "note": "[compound 5c, N-(3-(Benzo[d]thiazol-2-yl)-5-cyano-6-hydroxy-4-(methylthio)-2-oxopyridin-1(2H)-yl)benzenesulfonamide]", "values": [
      {"measurement": "zone of inhibition at 15000 µg/mL", "setting": "[1]", "result": "27.3 ± 1.5", "unit": "mm"},
      {"measurement": "zone of inhibition at 15000 µg/mL", "setting": "E. coli (ATCC: 3008)", "result": "23.3 ± 1.5", "unit": "mm"},
      {"measurement": "zone of inhibition at 15000 µg/mL", "setting": "S. aureus (ATCC: 6538)", "result": "17.6 ± 1.5", "unit": "mm"},
      {"measurement": "diameter of the inhibition zone", "setting": "[2]", "result": "−"},
      {"measurement": "diameter of the inhibition zone", "setting": "[3]", "result": "−"},
      {"measurement": "diameter of the inhibition zone", "setting": "S. mutans (ATCC: 25175)", "result": "−"}
    ]},
    {"molecule": "CSc1c(C(=O)Nc2ccccc2)c(N)n(NS(=O)(=O)c2ccccc2)c(=O)c1-c1nc2ccccc2s1", "note": "[compound 9a, 2-Amino-5-(benzo[d]thiazol-2-yl)-4-(methylthio)-6-oxo-N-phenyl-1-(phenylsulfonamido)-1,6-dihydropyridine-3-carboxamide]", "values": [
      {"measurement": "diameter of the inhibition zone", "setting": "[1]", "result": "−"},
      {"measurement": "diameter of the inhibition zone", "setting": "E. coli (ATCC: 3008)", "result": "−"},
      {"measurement": "diameter of the inhibition zone", "setting": "S. aureus (ATCC: 6538)", "result": "31 ± 1.0", "unit": "mm"},
      {"measurement": "zone of inhibition at 15000 µg/mL", "setting": "S. aureus (ATCC: 6538)", "result": "31 ± 1", "unit": "mm"},
      {"measurement": "diameter of the inhibition zone", "setting": "[2]", "result": "−"},
      {"measurement": "diameter of the inhibition zone", "setting": "[3]", "result": "−"},
      {"measurement": "diameter of the inhibition zone", "setting": "S. mutans (ATCC: 25175)", "result": "−"}
    ]},
    {"molecule": "CSc1c(C#N)c(O)n(NS(=O)(=O)c2ccc(C)cc2)c(=O)c1-c1nc2ccccc2s1", "note": "[compound 5d, N-(3-(Benzo[d]thiazol-2-yl)-5-cyano-6-hydroxy-4-(methylthio)-2-oxopyridin-1(2H)-yl)-4-methylbenzenesulfonamide]", "values": [
      {"measurement": "zone of inhibition at 15000 µg/mL", "setting": "[1]", "result": "18.2 ± 0.5", "unit": "mm"},
      {"measurement": "diameter of the inhibition zone", "setting": "E. coli (ATCC: 3008)", "result": "−"},
      {"measurement": "zone of inhibition at 15000 µg/mL", "setting": "S. aureus (ATCC: 6538)", "result": "17.5 ± 2", "unit": "mm"},
      {"measurement": "diameter of the inhibition zone", "setting": "[2]", "result": "−"},
      {"measurement": "diameter of the inhibition zone", "setting": "[3]", "result": "−"},
      {"measurement": "diameter of the inhibition zone", "setting": "S. mutans (ATCC: 25175)", "result": "−"}
    ]}
  ]
}
